Results reported in PubChem BioAssay (NCI).
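Five compound concentrations were applied to cells in 96-well plates for 48 hours; endpoints were derived by simple linear interpolation of the resulting dose-response curve. At the TGI there is no net growth.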

What was measured:
Assay in all cases: growth of human tumour cells (NCI), 48 h
786-0 renal = tested on: 786-0 renal
A498 renal = tested on: A498 renal
A549 NSCLC = tested on: A549 NSCLC
ACHN renal = tested on: ACHN renal
BT-549 breast = tested on: BT-549 breast
CAKI-1 renal = tested on: CAKI-1 renal
CCRF-CEM leukemia = tested on: CCRF-CEM leukemia
COLO 205 colon = tested on: COLO 205 colon
DU-145 prostate = tested on: DU-145 prostate
EKVX NSCLC = tested on: EKVX NSCLC
HCC-2998 colon = tested on: HCC-2998 colon
HCT-116 colon = tested on: HCT-116 colon
HCT-15 colon = tested on: HCT-15 colon
HL-60(TB) leukemia = tested on: HL-60(TB) leukemia
HOP-62 NSCLC = tested on: HOP-62 NSCLC
HOP-92 NSCLC = tested on: HOP-92 NSCLC
HS 578T breast = tested on: HS 578T breast
HT29 colon = tested on: HT29 colon
IGROV1 ovarian = tested on: IGROV1 ovarian
K-562 leukemia = tested on: K-562 leukemia
KM12 colon = tested on: KM12 colon
LOX IMVI melanoma = tested on: LOX IMVI melanoma
M14 melanoma = tested on: M14 melanoma
MALME-3M melanoma = tested on: MALME-3M melanoma
MCF7 breast = tested on: MCF7 breast
MDA-MB-231 breast = tested on: MDA-MB-231 breast
MDA-MB-435 = tested on: MDA-MB-435
MDA-N = tested on: MDA-N
MOLT-4 leukemia = tested on: MOLT-4 leukemia
NCI-H226 lung = tested on: NCI-H226 lung
NCI-H23 lung = tested on: NCI-H23 lung
NCI-H460 lung = tested on: NCI-H460 lung
NCI-H522 lung = tested on: NCI-H522 lung
NCI/ADR-RES ovarian = tested on: NCI/ADR-RES ovarian
OVCAR-3 ovarian = tested on: OVCAR-3 ovarian
OVCAR-4 ovarian = tested on: OVCAR-4 ovarian
OVCAR-5 ovarian = tested on: OVCAR-5 ovarian
OVCAR-8 ovarian = tested on: OVCAR-8 ovarian
PC-3 prostate = tested on: PC-3 prostate
RPMI-8226 leukemia = tested on: RPMI-8226 leukemia
RXF 393 renal = tested on: RXF 393 renal
SF-268 CNS = tested on: SF-268 CNS
SF-295 CNS = tested on: SF-295 CNS
SF-539 CNS = tested on: SF-539 CNS
SK-MEL-2 melanoma = tested on: SK-MEL-2 melanoma
SK-MEL-28 melanoma = tested on: SK-MEL-28 melanoma
SK-MEL-5 melanoma = tested on: SK-MEL-5 melanoma
SK-OV-3 ovarian = tested on: SK-OV-3 ovarian
SN12C renal = tested on: SN12C renal
SNB-19 CNS = tested on: SNB-19 CNS
SNB-75 CNS = tested on: SNB-75 CNS
SR leukemia = tested on: SR leukemia
SW-620 colon = tested on: SW-620 colon
T-47D breast = tested on: T-47D breast
TK-10 renal = tested on: TK-10 renal
U251 CNS = tested on: U251 CNS
UACC-257 melanoma = tested on: UACC-257 melanoma
UACC-62 melanoma = tested on: UACC-62 melanoma
UO-31 renal = tested on: UO-31 renal

Structure (SMILES): C=CC[C@@]1(OC(C)=O)C(=O)C(=O)OC1C1COC(C)(C)O1 (stereo partly drawn)
- TGI (786-0 renal): 24.6 µM
- TGI (A498 renal): 49 µM
- TGI (A549 NSCLC): 58.1 µM
- TGI (ACHN renal): 30.2 µM
- TGI (BT-549 breast): 40 µM
- TGI (CAKI-1 renal): 4.42 µM
- TGI (CCRF-CEM leukemia): 22.7 µM
- TGI (COLO 205 colon): 27.2 µM
- TGI (DU-145 prostate): 53.8 µM
- TGI (EKVX NSCLC): 33 µM
- TGI (HCC-2998 colon): 40.7 µM
- TGI (HCT-116 colon): 26.6 µM
- TGI (HCT-15 colon): 29 µM
- TGI (HL-60(TB) leukemia): 27.2 µM
- TGI (HOP-62 NSCLC): > 100 µM
- TGI (HOP-92 NSCLC): 30.4 µM
- TGI (HS 578T breast): > 100 µM
- TGI (HT29 colon): 36.4 µM
- TGI (IGROV1 ovarian): 34 µM
- TGI (K-562 leukemia): 32.2 µM
- TGI (KM12 colon): 29.1 µM
- TGI (LOX IMVI melanoma): 20 µM
- TGI (M14 melanoma): 35.1 µM
- TGI (MALME-3M melanoma): 32 µM
- TGI (MCF7 breast): 33.6 µM
- TGI (MDA-MB-231 breast): 30.9 µM
- TGI (MDA-MB-435): 30.9 µM
- TGI (MDA-N): 33.3 µM
- TGI (MOLT-4 leukemia): 32.6 µM
- TGI (NCI-H226 lung): > 100 µM
- TGI (NCI-H23 lung): 40.5 µM
- TGI (NCI-H460 lung): 39.1 µM
- TGI (NCI-H522 lung): 19.6 µM
- TGI (NCI/ADR-RES ovarian): 71.9 µM
- TGI (OVCAR-3 ovarian): 31.5 µM
- TGI (OVCAR-4 ovarian): 38.7 µM
- TGI (OVCAR-5 ovarian): 34.5 µM
- TGI (OVCAR-8 ovarian): 41.2 µM
- TGI (PC-3 prostate): 40.2 µM
- TGI (RPMI-8226 leukemia): 35.5 µM
- TGI (RXF 393 renal): 40.1 µM
- TGI (SF-268 CNS): 39.4 µM
- TGI (SF-295 CNS): > 100 µM
- TGI (SF-539 CNS): 72.9 µM
- TGI (SK-MEL-2 melanoma): 43.5 µM
- TGI (SK-MEL-28 melanoma): 33.5 µM
- TGI (SK-MEL-5 melanoma): 30.4 µM
- TGI (SK-OV-3 ovarian): > 100 µM
- TGI (SN12C renal): 32.5 µM
- TGI (SNB-19 CNS): > 100 µM
- TGI (SNB-75 CNS): 78.7 µM
- TGI (SR leukemia): 37.9 µM
- TGI (SW-620 colon): 26.6 µM
- TGI (T-47D breast): 37.5 µM
- TGI (TK-10 renal): 30 µM
- TGI (U251 CNS): 31.3 µM
- TGI (UACC-257 melanoma): 31.9 µM
- TGI (UACC-62 melanoma): 32.5 µM
- TGI (UO-31 renal): 31.4 µM

Structure (SMILES): Cc1ccc(N2CN3OC(=O)N(c4ccccc4)[C@@]3(c3ccccc3)C2)cc1
- TGI (786-0 renal): > 100 µM
- TGI (A498 renal): > 100 µM
- TGI (A549 NSCLC): > 100 µM
- TGI (ACHN renal): > 100 µM
- TGI (BT-549 breast): > 100 µM
- TGI (CAKI-1 renal): > 100 µM
- TGI (CCRF-CEM leukemia): > 100 µM
- TGI (COLO 205 colon): > 100 µM
- TGI (DU-145 prostate): > 100 µM
- TGI (EKVX NSCLC): > 100 µM
- TGI (HCC-2998 colon): > 100 µM
- TGI (HCT-116 colon): > 100 µM
- TGI (HCT-15 colon): > 100 µM
- TGI (HL-60(TB) leukemia): > 100 µM
- TGI (HOP-62 NSCLC): > 100 µM
- TGI (HOP-92 NSCLC): > 100 µM
- TGI (HS 578T breast): > 100 µM
- TGI (HT29 colon): > 100 µM
- TGI (IGROV1 ovarian): > 100 µM
- TGI (K-562 leukemia): > 100 µM
- TGI (KM12 colon): > 100 µM
- TGI (LOX IMVI melanoma): > 100 µM
- TGI (M14 melanoma): > 100 µM
- TGI (MALME-3M melanoma): > 100 µM
- TGI (MCF7 breast): > 100 µM
- TGI (MDA-MB-231 breast): > 100 µM
- TGI (MDA-MB-435): > 100 µM
- TGI (MDA-N): > 100 µM
- TGI (MOLT-4 leukemia): > 100 µM
- TGI (NCI-H226 lung): > 100 µM
- TGI (NCI-H23 lung): > 100 µM
- TGI (NCI-H460 lung): > 100 µM
- TGI (NCI-H522 lung): > 100 µM
- TGI (NCI/ADR-RES ovarian): > 100 µM
- TGI (OVCAR-3 ovarian): > 100 µM
- TGI (OVCAR-4 ovarian): > 100 µM
- TGI (OVCAR-5 ovarian): > 100 µM
- TGI (OVCAR-8 ovarian): > 100 µM
- TGI (PC-3 prostate): > 100 µM
- TGI (RPMI-8226 leukemia): > 100 µM
- TGI (RXF 393 renal): > 100 µM
- TGI (SF-268 CNS): > 100 µM
- TGI (SF-295 CNS): > 100 µM
- TGI (SF-539 CNS): > 100 µM
- TGI (SK-MEL-2 melanoma): > 100 µM
- TGI (SK-MEL-28 melanoma): > 100 µM
- TGI (SK-MEL-5 melanoma): > 100 µM
- TGI (SK-OV-3 ovarian): > 100 µM
- TGI (SN12C renal): > 100 µM
- TGI (SNB-19 CNS): > 100 µM
- TGI (SNB-75 CNS): > 100 µM
- TGI (SR leukemia): > 100 µM
- TGI (SW-620 colon): > 100 µM
- TGI (T-47D breast): 88.1 µM
- TGI (TK-10 renal): > 100 µM
- TGI (U251 CNS): > 100 µM
- TGI (UACC-257 melanoma): > 100 µM
- TGI (UACC-62 melanoma): > 100 µM
- TGI (UO-31 renal): > 100 µM
